# What was measured:
# Assay type in all cases: functional
# [1] = test system: 786-0; experiment: Growth inhibition of human 786-0 cells assessed as cell growth at 100 uM after 48 hrs by SRB assay; conditions: 786-0, 48 h, read-out: Activity
# [2] = test system: NCI-H226; experiment: Growth inhibition of human NCI-H226 cells assessed as cell growth at 1 uM after 48 hrs by SRB assay; conditions: NCI-H226, 48 h, read-out: Activity
# [3] = test system: U-251; experiment: Growth inhibition of human U251 cells assessed as cell growth at 1 mM after 48 hrs by SRB assay; conditions: U-251, 48 h, read-out: Activity
# [4] = test system: COLO 205; experiment: Growth inhibition of human COLO205 cells assessed as cell growth at 0.1 uM after 48 hrs by SRB assay; conditions: COLO 205, 48 h, read-out: Activity
# [5] = test system: SK-OV-3; experiment: Growth inhibition of human SKOV3 cells assessed as cell growth at 1 mM after 48 hrs by SRB assay; conditions: SK-OV-3, 48 h, read-out: Activity
# [6] = test system: NCI-H522; experiment: Growth inhibition of human NCI-H522 cells assessed as cell growth at 0.1 uM after 48 hrs by SRB assay; conditions: NCI-H522, 48 h, read-out: Activity
# [7] = test system: SF-268; experiment: Growth inhibition of human SF268 cells after 48 hrs by […] growth inhibition assay; conditions: SF-268, 48 h
# [8] = test system: NCI-H322M; experiment: Growth inhibition of human NCI-H322M cells assessed as cell growth at 100 uM after 48 hrs by SRB assay; conditions: read-out: Activity
# [9] = test system: MDA-MB-231; experiment: Growth inhibition of human MDA-MB-231 cells assessed as cell growth at 1 mM after 48 hrs by SRB assay; conditions: MDA-MB-231, 48 h, read-out: Activity
# [10] = test system: SF-295; experiment: Growth inhibition of human SF295 cells after 48 hrs by […] growth inhibition assay; conditions: SF-295, 48 h
# [11] = test system: UO-31; experiment: Growth inhibition of human UO31 cells after 48 hrs by […] growth inhibition assay; conditions: UO-31, 48 h
# [12] = test system: MDA-MB-435; experiment: Growth inhibition of human MDA-MB-435 cells assessed as cell growth at 10 uM after 48 hrs by SRB assay; conditions: MDA-MB-435, 48 h, read-out: Activity
# [13] = test system: NCI-H226; experiment: Growth inhibition of human NCI-H226 cells assessed as cell growth at 1 mM after 48 hrs by SRB assay; conditions: NCI-H226, 48 h, read-out: Activity
# [14] = test system: M14; experiment: Growth inhibition of human M14 cells assessed as cell growth at 10 uM after 48 hrs by SRB assay; conditions: M14, 48 h, read-out: Activity
# [15] = test system: BT-549; experiment: Growth inhibition of human BT549 cells assessed as cell growth at 10 uM after 48 hrs by SRB assay; conditions: BT-549, 48 h, read-out: Activity
# [16] = test system: EKVX; experiment: Growth inhibition of human EKVX cells assessed as cell growth at 1 uM after 48 hrs by SRB assay; conditions: read-out: Activity
# [17] = Growth inhibition of human […] cells assessed as cell growth at 100 uM after 48 hrs by SRB assay; conditions: read-out: Activity
# [18] = test system: OVCAR-3; experiment: Growth inhibition of human OVCAR3 cells assessed as cell growth at 100 uM after 48 hrs by SRB assay; conditions: OVCAR-3, 48 h, read-out: Activity
# [19] = test system: MDA-MB-435; experiment: Growth inhibition of human MDA-MB-435 cells assessed as cell growth at 1 uM after 48 hrs by SRB assay; conditions: MDA-MB-435, 48 h, read-out: Activity
# [20] = test system: COLO 205; experiment: Growth inhibition of human COLO205 cells assessed as cell growth at 1 uM after 48 hrs by SRB assay; conditions: COLO 205, 48 h, read-out: Activity
# [21] = test system: SK-MEL-2; experiment: Growth inhibition of human SK-MEL-2 cells assessed as cell growth at 1 uM after 48 hrs by SRB assay; conditions: SK-MEL-2, 48 h, read-out: Activity
# [22] = test system: 786-0; experiment: Growth inhibition of human 786-0 cells assessed as cell growth at 1 mM after 48 hrs by SRB assay; conditions: 786-0, 48 h, read-out: Activity
# [23] = test system: SNB-19; experiment: Growth inhibition of human SNB19 cells assessed as cell growth at 1 mM after 48 hrs by SRB assay; conditions: SNB-19, 48 h, read-out: Activity
# [24] = test system: OVCAR-5; experiment: Growth inhibition of human OVCAR5 cells assessed as cell growth at 1 mM after 48 hrs by SRB assay; conditions: OVCAR-5, 48 h, read-out: Activity
# [25] = test system: HOP-62; experiment: Growth inhibition of human HOP62 cells assessed as cell growth at 0.1 uM after 48 hrs by SRB assay; conditions: HOP-62, 48 h, read-out: Activity
# [26] = test system: SK-MEL-5; experiment: Growth inhibition of human SK-MEL-5 cells after 48 hrs by […] growth inhibition assay; conditions: SK-MEL-5, 48 h
# [27] = test system: SK-OV-3; experiment: Growth inhibition of human SKOV3 cells assessed as cell growth at 1 uM after 48 hrs by SRB assay; conditions: SK-OV-3, 48 h, read-out: Activity
# [28] = test system: HOP-92; experiment: Growth inhibition of human HOP92 cells assessed as cell growth at 100 uM after 48 hrs by SRB assay; conditions: HOP-92, 48 h, read-out: Activity
# [29] = test system: HCT-116; experiment: Growth inhibition of human HCT116 cells after 48 hrs by […] growth inhibition assay; conditions: HCT-116, 48 h
# [30] = test system: Malme-3M; experiment: Growth inhibition of human MALME-3M cells assessed as cell growth at 100 uM after 48 hrs by SRB assay; conditions: read-out: Activity
# [31] = test system: OVCAR-5; experiment: Growth inhibition of human OVCAR5 cells after 48 hrs by […] growth inhibition assay; conditions: OVCAR-5, 48 h
# [32] = test system: K562; experiment: Growth inhibition of human K562 cells assessed as cell growth at 10 uM after 48 hrs by SRB assay; conditions: K562, 48 h, read-out: Activity
# [33] = test system: SR; experiment: Growth inhibition of human SR cells assessed as cell growth at 10 uM after 48 hrs by SRB assay; conditions: read-out: Activity
# [34] = read-out: LC50 (the source's name)
# [35] = read-out: pLC50 (the source's name) (converted)
compound,measurement,setting,value
CNC(=O)NC[C@H]1O[C@@H](n2cnc3c(NC(=O)Nc4ccccc4)ncnc32)[C@H](O[Si](C)(C)C(C)(C)C)[C@@H]1O[Si](C)(C)C(C)(C)C,growth at 100 µM,[1],-83%
same,growth at 1 µM,[2],106%
same,growth at 1000 µM,[3],-46%
same,growth at 0.1 µM,[4],109%
same,growth at 1000 µM,[5],8%
same,growth at 0.1 µM,[6],92%
same,GI50,[7]; read-out: GI50,3.58 µM
same,CC50,[7]; [34],> 100 µM
same,TGI,[7]; read-out: TGI,14 µM
same,GI50,[7]; read-out: pGI50 (converted),3.55 µM
same,CC50,[7]; [35],> 100 µM
same,TGI,[7]; read-out: pTGI (converted),14.1 µM
same,growth at 100 µM,[8],39%
same,growth at 1000 µM,[9],-76%
same,GI50,[10]; read-out: GI50,3.84 µM
same,LC50,[10]; read-out: LC50,> 100 µM
same,TGI,[10]; read-out: TGI,31.8 µM
same,GI50,[10]; read-out: pGI50 (converted),3.8 µM
same,LC50,[10]; read-out: pLC50 (converted),> 100 µM
same,TGI,[10]; read-out: pTGI (converted),31.6 µM
same,GI50,[11]; read-out: GI50,2.5 µM
same,CC50,[11]; [34],> 100 µM
same,TGI,[11]; read-out: TGI,9.56 µM
same,GI50,[11]; read-out: pGI50 (converted),2.51 µM
same,CC50,[11]; [35],> 100 µM
same,TGI,[11]; read-out: pTGI (converted),9.55 µM
same,growth at 10 µM,[12],97%
same,growth at 1000 µM,[13],-48%
same,growth at 10 µM,[14],105%
same,growth at 10 µM,[15],103%
same,growth at 1 µM,[16],111%
same,growth at 100 µM,[17],5%
same,growth at 100 µM,[18],-39%
same,growth at 1 µM,[19],102%
same,growth at 1 µM,[20],111%
same,growth at 1 µM,[21],110%
same,growth at 1000 µM,[22],-80%
same,growth at 1000 µM,[23],7%
same,growth at 1000 µM,[24],-43%
same,growth at 0.1 µM,[25],102%
same,GI50,[26]; read-out: GI50,1.98 µM
same,CC50,[26]; [34],13.6 µM
same,TGI,[26]; read-out: TGI,4.75 µM
same,GI50,[26]; read-out: pGI50 (converted),2 µM
same,CC50,[26]; [35],13.5 µM
same,TGI,[26]; read-out: pTGI (converted),4.79 µM
same,growth at 1 µM,[27],113%
same,growth at 100 µM,[28],-28%
same,GI50,[29]; read-out: GI50,2.11 µM
same,CC50,[29]; [34],8.8 µM
same,TGI,[29]; read-out: TGI,4.31 µM
same,GI50,[29]; read-out: pGI50 (converted),2.09 µM
same,CC50,[29]; [35],8.71 µM
same,TGI,[29]; read-out: pTGI (converted),4.27 µM
same,growth at 100 µM,[30],-1%
same,GI50,[31]; read-out: GI50,5.24 µM
same,CC50,[31]; [34],> 100 µM
same,TGI,[31]; read-out: TGI,25.2 µM
same,GI50,[31]; read-out: pGI50 (converted),5.25 µM
same,CC50,[31]; [35],> 100 µM
same,TGI,[31]; read-out: pTGI (converted),25.1 µM
CNC(=O)OC[C@H]1O[C@@H](n2cnc3c(NC(=O)Nc4ccccc4)ncnc32)[C@H](O[Si](C)(C)C(C)(C)C)[C@@H]1O[Si](C)(C)C(C)(C)C,growth at 10 µM,[32],75.4%
same,growth at 10 µM,[12],94.9%
same,growth at 10 µM,[14],102%
same,growth at 10 µM,[33],77.9%
